# Values of other authors in patent US8227490B2, “Use of 1-hydroxy-2-pyridones for the treatment of seborrheic dermatitis” (Medicis Pharmaceutical Corporation, priority 1996, dated 2012).
# System: gram-positive bacteria
# Conditions: Kinsman et al., J. Med. Microbiol. (1983)
smiles,measurement,value
CC(=O)N1CCN(c2ccc(OCC3COC(Cn4ccnc4)(c4ccc(Cl)cc4Cl)O3)cc2)CC1 (stereo not shown) [ketoconazole],activity in vitro against gram-positive bacteria,inactive
